Test results taken from PubChem BioAssay (NCI).
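At the GI50, growth is halved. The concentration for full growth arrest is given as TGI.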

Key:
Experiment in all cases: NCI anticancer screen, dose series, 384-well format
NCI-H460 NSCLC = test system: NCI-H460 NSCLC
HL-60(TB) leukemia = test system: HL-60(TB) leukemia
RPMI-8226 leukemia = test system: RPMI-8226 leukemia
RXF 393 renal = test system: RXF 393 renal
CAKI-1 renal = test system: CAKI-1 renal
786-0 renal = test system: 786-0 renal
HT29 colon = test system: HT29 colon
MCF7 breast = test system: MCF7 breast
UACC-257 melanoma = test system: UACC-257 melanoma
SK-MEL-2 melanoma = test system: SK-MEL-2 melanoma
COLO 205 colon = test system: COLO 205 colon
MALME-3M melanoma = test system: MALME-3M melanoma
SW-620 colon = test system: SW-620 colon
UACC-62 melanoma = test system: UACC-62 melanoma
NCI/ADR-RES ovarian = test system: NCI/ADR-RES ovarian
SF-539 CNS = test system: SF-539 CNS
KM12 colon = test system: KM12 colon
K-562 leukemia = test system: K-562 leukemia
SR leukemia = test system: SR leukemia
MOLT-4 leukemia = test system: MOLT-4 leukemia
SNB-19 CNS = test system: SNB-19 CNS
IGROV1 ovarian = test system: IGROV1 ovarian
T-47D breast = test system: T-47D breast
SK-MEL-28 melanoma = test system: SK-MEL-28 melanoma
EKVX NSCLC = test system: EKVX NSCLC
HCT-15 colon = test system: HCT-15 colon
OVCAR-5 ovarian = test system: OVCAR-5 ovarian
SN12C renal = test system: SN12C renal
MDA-MB-468 breast = test system: MDA-MB-468 breast
HCC-2998 colon = test system: HCC-2998 colon
PC-3 prostate = test system: PC-3 prostate
A549 NSCLC = test system: A549 NSCLC
NCI-H226 lung = test system: NCI-H226 lung
NCI-H522 lung = test system: NCI-H522 lung
SF-295 CNS = test system: SF-295 CNS
HS 578T breast = test system: HS 578T breast
MDA-MB-231 breast = test system: MDA-MB-231 breast
MDA-MB-435 melanoma = test system: MDA-MB-435 melanoma
SK-MEL-5 melanoma = test system: SK-MEL-5 melanoma
SNB-75 CNS = test system: SNB-75 CNS
OVCAR-8 ovarian = test system: OVCAR-8 ovarian
U251 glioblastoma = test system: U251 glioblastoma
CCRF-CEM leukemia = test system: CCRF-CEM leukemia
DU-145 prostate = test system: DU-145 prostate
NCI-H23 lung = test system: NCI-H23 lung
M14 melanoma = test system: M14 melanoma
HOP-62 NSCLC = test system: HOP-62 NSCLC
BT-549 breast = test system: BT-549 breast
A498 renal = test system: A498 renal
ACHN renal = test system: ACHN renal
SK-OV-3 ovarian = test system: SK-OV-3 ovarian
LOX IMVI melanoma = test system: LOX IMVI melanoma
HCT-116 colon = test system: HCT-116 colon
TK-10 renal = test system: TK-10 renal
OVCAR-4 ovarian = test system: OVCAR-4 ovarian
HOP-92 NSCLC = test system: HOP-92 NSCLC
OVCAR-3 ovarian = test system: OVCAR-3 ovarian
SF-268 CNS = test system: SF-268 CNS
NCI-H322M lung = test system: NCI-H322M lung

## COc1ccc(S(=O)(=O)N2CCNCC2)cc1OC
NCI-H460 NSCLC
  GI50: > 100 µM
  TGI: > 100 µM
HL-60(TB) leukemia
  GI50: > 100 µM
  TGI: > 100 µM
RPMI-8226 leukemia
  GI50: > 100 µM
  TGI: > 100 µM
RXF 393 renal
  GI50: > 100 µM
  TGI: > 100 µM
CAKI-1 renal
  GI50: > 100 µM
  TGI: > 100 µM
786-0 renal
  GI50: > 100 µM
  TGI: > 100 µM
HT29 colon
  GI50: > 100 µM
  TGI: > 100 µM
MCF7 breast
  GI50: > 100 µM
  TGI: > 100 µM
UACC-257 melanoma
  GI50: > 100 µM
  TGI: > 100 µM
SK-MEL-2 melanoma
  GI50: > 100 µM
  TGI: > 100 µM
COLO 205 colon
  GI50: > 100 µM
  TGI: > 100 µM
MALME-3M melanoma
  GI50: > 100 µM
  TGI: > 100 µM
SW-620 colon
  GI50: > 100 µM
  TGI: > 100 µM
UACC-62 melanoma
  GI50: > 100 µM
  TGI: > 100 µM
NCI/ADR-RES ovarian
  GI50: > 100 µM
  TGI: > 100 µM
SF-539 CNS
  GI50: > 100 µM
  TGI: > 100 µM
KM12 colon
  GI50: > 100 µM
  TGI: > 100 µM
K-562 leukemia
  GI50: > 100 µM
  TGI: > 100 µM
SR leukemia
  GI50: > 100 µM
  TGI: > 100 µM
MOLT-4 leukemia
  GI50: > 100 µM
  TGI: > 100 µM
SNB-19 CNS
  GI50: > 100 µM
  TGI: > 100 µM
IGROV1 ovarian
  GI50: > 100 µM
  TGI: > 100 µM
T-47D breast
  GI50: > 100 µM
  TGI: > 100 µM
SK-MEL-28 melanoma
  GI50: > 100 µM
  TGI: > 100 µM
EKVX NSCLC
  GI50: > 100 µM
  TGI: > 100 µM
HCT-15 colon
  GI50: > 100 µM
  TGI: > 100 µM
OVCAR-5 ovarian
  GI50: > 100 µM
  TGI: > 100 µM
SN12C renal
  GI50: > 100 µM
  TGI: > 100 µM
MDA-MB-468 breast
  GI50: > 100 µM
  TGI: > 100 µM
HCC-2998 colon
  GI50: > 100 µM
  TGI: > 100 µM
PC-3 prostate
  GI50: > 100 µM
  TGI: > 100 µM
A549 NSCLC
  GI50: > 100 µM
  TGI: > 100 µM
NCI-H226 lung
  GI50: > 100 µM
  TGI: > 100 µM
NCI-H522 lung
  GI50: > 100 µM
  TGI: > 100 µM
SF-295 CNS
  GI50: > 100 µM
  TGI: > 100 µM
HS 578T breast
  GI50: > 100 µM
  TGI: > 100 µM
MDA-MB-231 breast
  GI50: > 100 µM
  TGI: > 100 µM
MDA-MB-435 melanoma
  GI50: > 100 µM
  TGI: > 100 µM
SK-MEL-5 melanoma
  GI50: > 100 µM
  TGI: > 100 µM
SNB-75 CNS
  GI50: > 100 µM
  TGI: > 100 µM
OVCAR-8 ovarian
  GI50: > 100 µM
  TGI: > 100 µM
U251 glioblastoma
  GI50: > 100 µM
  TGI: > 100 µM
CCRF-CEM leukemia
  GI50: > 100 µM
  TGI: > 100 µM
DU-145 prostate
  GI50: > 100 µM
  TGI: > 100 µM
NCI-H23 lung
  GI50: > 100 µM
  TGI: > 100 µM
M14 melanoma
  GI50: > 100 µM
  TGI: > 100 µM
HOP-62 NSCLC
  GI50: > 100 µM
  TGI: > 100 µM
BT-549 breast
  GI50: > 100 µM
  TGI: > 100 µM
A498 renal
  GI50: > 100 µM
  TGI: > 100 µM
ACHN renal
  GI50: > 100 µM
  TGI: > 100 µM
SK-OV-3 ovarian
  GI50: > 100 µM
  TGI: > 100 µM
LOX IMVI melanoma
  GI50: > 100 µM
  TGI: > 100 µM
HCT-116 colon
  GI50: > 100 µM
  TGI: > 100 µM
TK-10 renal
  GI50: > 100 µM
  TGI: > 100 µM
OVCAR-4 ovarian
  GI50: > 100 µM
  TGI: > 100 µM
HOP-92 NSCLC
  GI50: > 100 µM
  TGI: > 100 µM
OVCAR-3 ovarian
  GI50: > 100 µM
  TGI: > 100 µM
SF-268 CNS
  GI50: > 100 µM
  TGI: > 100 µM
NCI-H322M lung
  GI50: > 100 µM
  TGI: > 100 µM
